Data: ChEMBL document CHEMBL5346873, “Strategic modification of low-activity natural antimicrobial peptides confers antibacterial potential in vitro and in vivo” (Eur J Med Chem, 2023)
Activity calls are given as the source filed them. The rule behind the calls is not given here.

Legend:
Vibrio vulnificus [1] = experiment: Antibiofilm activity against Vibrio vulnificus V1 assessed as inhibition of biofilm formation at 50 to 100 ug/ml incubated for 24 hrs by crystal violet staining based assay; format: functional, organism-based; conditions: dose 50-100 µg/ml
Streptococcus iniae [2] = experiment: Additive antibacterial activity against Streptococcus iniae in presence of meropenem by checkerboard microtiter plate assay; format: functional
Escherichia coli [3] = experiment: Antibacterial activity against Escherichia coli incubated for 16 to 20 hrs; format: functional; conditions: time 16-20 hrs
Klebsiella pneumoniae [4] = experiment: Antibacterial activity against Klebsiella pneumoniae expressing NDM-1 in presence of human serum; format: functional, organism-based
Vibrio vulnificus [5] = experiment: Antibiofilm activity against Vibrio vulnificus V3 assessed as inhibition of biofilm formation at 25 ug/ml incubated for 24 hrs by crystal violet staining based assay; format: functional, organism-based; conditions: dose 25.0 µg/ml
Vibrio vulnificus [6] = experiment: Antibacterial activity against Vibrio vulnificus at pH 2 to 10; format: functional, organism-based
Vibrio anguillarum [7] = experiment: Antibacterial activity against Listonella anguillarum incubated for 16 to 20 hrs; format: functional; conditions: time 16-20 hrs
Klebsiella aerogenes [8] = experiment: Synergistic antibacterial activity against Enterobacter aerogenes in presence of meropenem by checkerboard microtiter plate assay; format: functional
Acinetobacter baumannii [9] = experiment: Synergistic antibacterial activity against Acinetobacter baumannii in presence of doxycycline by checkerboard microtiter plate assay; format: functional
Vibrio vulnificus [10] = experiment: Antibacterial activity against Vibrio vulnificus in presence of 1 to 10 ug/ml pepsin; format: functional, organism-based
Enterococcus faecalis [11] = experiment: Bactericidal activity against Enterococcus faecalis incubated overnight; format: functional
Vibrio vulnificus [12] = experiment: Synergistic antibacterial activity against Vibrio vulnificus assessed as doxycycline MIC by checkerboard microtiter plate assay; format: functional
Klebsiella oxytoca = experiment: Antibacterial activity against Klebsiella oxytoca incubated for 16 to 20 hrs; format: functional; conditions: time 16-20 hrs
Aeromonas hydrophila = experiment: Bactericidal activity against Aeromonas hydrophila incubated overnight; format: functional
Acinetobacter baumannii [13] = experiment: Additive antibacterial activity against Acinetobacter baumannii in presence of meropenem by checkerboard microtiter plate assay; format: functional
Vibrio vulnificus [14] = experiment: Antibacterial activity against Vibrio vulnificus in presence of proteinase K; format: functional, organism-based
Vibrio vulnificus [15] = experiment: Synergistic antibacterial activity against Vibrio vulnificus in presence of meropenem by checkerboard microtiter plate assay; format: functional
Vibrio vulnificus [16] = experiment: Antibacterial activity against Vibrio vulnificus in presence of 1 to 10 ug/ml trypsin; format: functional, organism-based
Vibrio vulnificus [17] = experiment: Synergistic antibacterial activity against Vibrio vulnificus assessed as meropenem MIC by checkerboard microtiter plate assay; format: functional
Vibrio vulnificus [18] = experiment: Antibacterial activity against Vibrio vulnificus in presence of 0.1 ug/ml trypsin; format: functional, organism-based
Vibrio vulnificus [19] = experiment: Bactericidal activity against Vibrio vulnificus 204 incubated overnight; format: functional
Acinetobacter baumannii [20] = experiment: Bactericidal activity against Acinetobacter baumannii incubated for overnight; format: functional
Streptococcus agalactiae [21] = experiment: Synergistic antibacterial activity against Streptococcus agalactiae assessed as fractional inhibitory concentration in presence of doxycycline by checkerboard microtiter plate assay; format: functional
Vibrio vulnificus [22] = experiment: Bactericidal activity against Vibrio vulnificus V2 incubated overnight; format: functional
Escherichia coli [23] = experiment: Synergistic antibacterial activity against Escherichia coli assessed as fractional inhibitory concentration in presence of meropenem by checkerboard microtiter plate assay; format: functional
Vibrio anguillarum [24] = experiment: Bactericidal activity against Listonella anguillarum incubated overnight; format: functional
[25] = Hemolytic activity in human RBC at 100 ug/ml incubated for 1 hr; format: toxicity, cell-based, Erythrocyte; conditions: human red blood cells (erythrocytes), at 100 µg/mL, read-out: Activity
Vibrio vulnificus [26] = experiment: Synergistic antibacterial activity against Vibrio vulnificus assessed as fractional inhibitory concentration in presence of meropenem by checkerboard microtiter plate assay; format: functional
Vibrio vulnificus [27] = experiment: Antibiofilm activity against Vibrio vulnificus V3 assessed as inhibition of biofilm formation at 50 to 100 ug/ml incubated for 24 hrs by crystal violet staining based assay; format: functional, organism-based; conditions: dose 50-100 µg/ml
Streptococcus agalactiae [28] = experiment: Synergistic antibacterial activity against Streptococcus agalactiae assessed as meropenem MIC by checkerboard microtiter plate assay; format: functional
Acinetobacter baumannii [29] = experiment: Synergistic antibacterial activity against Acinetobacter baumannii assessed as fractional inhibitory concentration in presence of doxycycline by checkerboard microtiter plate assay; format: functional
Vibrio vulnificus [30] = experiment: Antibiofilm activity against Vibrio vulnificus V2 assessed as inhibition of biofilm formation at 25 to 100 ug/ml incubated for 24 hrs by crystal violet staining based assay; format: functional, organism-based; conditions: dose 25-100 µg/ml
Enterococcus faecium [31] = experiment: Bactericidal activity against Enterococcus faecium incubated overnight; format: functional
Pseudomonas aeruginosa = experiment: Additive antibacterial activity against Pseudomonas aeruginosa in presence of meropenem by checkerboard microtiter plate assay; format: functional
Vibrio vulnificus [32] = experiment: Synergistic antibacterial activity against Vibrio vulnificus in presence of doxycycline by checkerboard microtiter plate assay; format: functional
Salmonella enterica = experiment: Bactericidal activity against Salmonella enterica incubated overnight; format: functional
Cell membrane [33] = experiment: Induction of membrane lysis in Vibrio vulnificus at 1 time MIC incubated for 1 hr by TEM analysis; format: subcellular
Streptococcus agalactiae [34] = experiment: Synergistic antibacterial activity against Streptococcus agalactiae assessed as doxycycline MIC by checkerboard microtiter plate assay; format: functional
Escherichia coli [35] = experiment: Synergistic antibacterial activity against Escherichia coli assessed as meropenem MIC by checkerboard microtiter plate assay; format: functional
Vibrio vulnificus [36] = experiment: Antibiofilm activity against Vibrio vulnificus 204 assessed as inhibition of biofilm formation at 25 to 100 ug/ml incubated for 24 hrs by crystal violet staining based assay; format: functional, organism-based; conditions: dose 25-100 µg/ml
Klebsiella pneumoniae [37] = experiment: Synergistic antibacterial activity against Klebsiella pneumoniae expressing NDM1 assessed as doxycycline MIC by checkerboard microtiter plate assay; format: functional
Streptococcus iniae [38] = experiment: Bactericidal activity against Streptococcus iniae incubated overnight; format: functional
Vibrio vulnificus [39] = experiment: Antibacterial activity against Vibrio vulnificus in presence of pancreatin; format: functional, organism-based
Cell membrane [40] = experiment: Induction of outer membrane lysis in Vibrio vulnificus at 100 ug/ml by NPN-dye based fluorescence analysis; format: subcellular; conditions: dose 100.0 µg/ml
Enterococcus faecalis [41] = experiment: Antibacterial activity against Enterococcus faecalis incubated for 16 to 20 hrs; format: functional; conditions: time 16-20 hrs
Klebsiella aerogenes [42] = experiment: Synergistic antibacterial activity against Enterobacter aerogenes assessed as meropenem MIC by checkerboard microtiter plate assay; format: functional
Staphylococcus aureus = experiment: Bactericidal activity against Staphylococcus aureus incubated for overnight; format: functional
Klebsiella pneumoniae [43] = experiment: Antibacterial activity against NDM Klebsiella pneumoniae incubated for 16 to 20 hrs; format: functional; conditions: time 16-20 hrs
Vibrio vulnificus [44] = experiment: Antibiofilm activity against Vibrio vulnificus 204 assessed as inhibition of biofilm formation at 50 to 100 ug/ml incubated for 24 hrs by crystal violet staining based assay; format: functional, organism-based; conditions: dose 50-100 µg/ml
Escherichia coli [45] = experiment: Synergistic antibacterial activity against Escherichia coli in presence of meropenem by checkerboard microtiter plate assay; format: functional
Enterococcus faecium [46] = experiment: Antibacterial activity against Enterococcus faecium incubated for 16 to 20 hrs; format: functional; conditions: time 16-20 hrs
Vibrio vulnificus [47] = experiment: Antibiofilm activity against Vibrio vulnificus V1 assessed as inhibition of biofilm formation at 25 to 100 ug/ml incubated for 24 hrs by crystal violet staining based assay; format: functional, organism-based; conditions: dose 25-100 µg/ml
Vibrio vulnificus [48] = experiment: Antibiofilm activity against Vibrio vulnificus V1 assessed as inhibition of biofilm formation at 25 ug/ml incubated for 24 hrs by crystal violet staining based assay; format: functional, organism-based; conditions: dose 25.0 µg/ml
Vibrio vulnificus [49] = experiment: Antibacterial activity against Vibrio vulnificus V3 incubated for 16 to 20 hrs; format: functional; conditions: time 16-20 hrs
Salmonella typhimurium = experiment: Antibacterial activity against Salmonella typhimurium incubated for 16 to 20 hrs; format: functional, Salmonella enterica subsp. enterica serovar Typhimurium; conditions: Salmonella enterica; time 16-20 hrs
Edwardsiella tarda = experiment: Bactericidal activity against Edwardsiella tarda incubated overnight; format: functional
Klebsiella aerogenes [50] = experiment: Bactericidal activity against Enterobacter aerogenes incubated overnight; format: functional

H-FKWKSVLKGVKGFVKGYF-OH
Activity (Vibrio vulnificus [1]): Active | MIC (Streptococcus iniae [2]): 0.024 µg/mL | MIC (Escherichia coli [3]): 6.25 µg/mL | Activity (Klebsiella pneumoniae [4]): Active | Activity (Vibrio vulnificus [5]): inactive | Activity (Vibrio vulnificus [6]): Active | MIC (Vibrio anguillarum [7]): 100 µg/mL | MIC (Klebsiella aerogenes [8]): 0.195 µg/mL | MIC (Acinetobacter baumannii [9]): 0.048 µg/mL | Activity (Vibrio vulnificus [10]): Active | MBC (Enterococcus faecalis [11]): > 100 µg/mL | MIC (Vibrio vulnificus [12]): 0.006 µg/mL | MIC (Klebsiella oxytoca): 25 µg/mL | MBC (Aeromonas hydrophila): > 100 µg/mL | MIC (Acinetobacter baumannii [13]): 0.048 µg/mL | Activity (Vibrio vulnificus [14]): Active | MIC (Vibrio vulnificus [15]): 0.097 µg/mL | Activity (Vibrio vulnificus [16]): Active | MIC (Vibrio vulnificus [17]): 0.003 µg/mL | Activity (Vibrio vulnificus [18]): Active | MBC (Vibrio vulnificus [19]): 6.25 µg/mL | MBC (Acinetobacter baumannii [20]): 3.12 µg/mL | FIC (Streptococcus agalactiae [21]): 0.14 | MBC (Vibrio vulnificus [22]): 12.5 µg/mL | FIC (Escherichia coli [23]): 0.07 | MBC (Vibrio anguillarum [24]): 100 µg/mL | hemolysis at 1 h, 100 ug/ml [25]: 26.5% | FIC (Vibrio vulnificus [26]): 0.14 | Activity (Vibrio vulnificus [27]): Active | MIC (Streptococcus agalactiae [28]): 0.002 µg/mL | FIC (Acinetobacter baumannii [29]): 0.07 | Activity (Vibrio vulnificus [30]): Active | MBC (Enterococcus faecium [31]): > 100 µg/mL | MIC (Pseudomonas aeruginosa): 6.25 µg/mL | MIC (Vibrio vulnificus [32]): 0.097 µg/mL | MBC (Salmonella enterica): 12.5 µg/mL | Activity (Cell membrane [33]): Active | MIC (Streptococcus agalactiae [34]): 0.006 µg/mL | MIC (Escherichia coli [35]): 0.001 µg/mL | Activity (Vibrio vulnificus [36]): Active | MIC (Klebsiella pneumoniae [37]): 1.56 µg/mL | MBC (Streptococcus iniae [38]): < 1.56 µg/mL | Activity (Vibrio vulnificus [39]): Active | Activity (Cell membrane [40]): Active | MIC (Enterococcus faecalis [41]): 50 µg/mL | MIC (Klebsiella aerogenes [42]): 0.003 µg/mL | MBC (Staphylococcus aureus): 50 µg/mL | MIC (Klebsiella pneumoniae [43]): 25 µg/mL | Activity (Vibrio vulnificus [44]): Active | MIC (Escherichia coli [45]): 0.097 µg/mL | MIC (Enterococcus faecium [46]): 25 µg/mL | Activity (Vibrio vulnificus [47]): Active | Activity (Vibrio vulnificus [48]): inactive | MIC (Vibrio vulnificus [49]): 12.5 µg/mL | MIC (Salmonella typhimurium): 12.5 µg/mL | MBC (Edwardsiella tarda): 50 µg/mL | MBC (Klebsiella aerogenes [50]): 12.5 µg/mL

H-KKCIAKAILKKAKKLLKKLVNP-OH
Activity (Vibrio vulnificus [1]): Active | MIC (Streptococcus iniae [2]): 0.048 µg/mL | MIC (Escherichia coli [3]): 12.5 µg/mL | Activity (Klebsiella pneumoniae [4]): Active | Activity (Vibrio vulnificus [5]): inactive | Activity (Vibrio vulnificus [6]): Active | MIC (Vibrio anguillarum [7]): 50 µg/mL | MIC (Klebsiella aerogenes [8]): 0.097 µg/mL | MIC (Acinetobacter baumannii [9]): 0.048 µg/mL | Activity (Vibrio vulnificus [10]): Active | MBC (Enterococcus faecalis [11]): > 100 µg/mL | MIC (Vibrio vulnificus [12]): 0.006 µg/mL | MIC (Klebsiella oxytoca): 50 µg/mL | MBC (Aeromonas hydrophila): > 100 µg/mL | MIC (Acinetobacter baumannii [13]): 0.048 µg/mL | Activity (Vibrio vulnificus [14]): Active | MIC (Vibrio vulnificus [15]): 0.195 µg/mL | Activity (Vibrio vulnificus [16]): Active | MIC (Vibrio vulnificus [17]): 0.003 µg/mL | Activity (Vibrio vulnificus [18]): Active | MBC (Vibrio vulnificus [19]): 6.25 µg/mL | MBC (Acinetobacter baumannii [20]): 1.56 µg/mL | FIC (Streptococcus agalactiae [21]): 0.14 | MBC (Vibrio vulnificus [22]): 12.5 µg/mL | FIC (Escherichia coli [23]): 0.07 | MBC (Vibrio anguillarum [24]): 50 µg/mL | hemolysis at 1 h, 100 ug/ml [25]: 5.5% | FIC (Vibrio vulnificus [26]): 0.14 | Activity (Vibrio vulnificus [27]): Active | MIC (Streptococcus agalactiae [28]): 0.002 µg/mL | FIC (Acinetobacter baumannii [29]): 0.07 | Activity (Vibrio vulnificus [30]): Active | MBC (Enterococcus faecium [31]): > 100 µg/mL | MIC (Pseudomonas aeruginosa): 0.78 µg/mL | MIC (Vibrio vulnificus [32]): 0.195 µg/mL | MBC (Salmonella enterica): 12.5 µg/mL | Activity (Cell membrane [33]): Active | MIC (Streptococcus agalactiae [34]): 0.006 µg/mL | MIC (Escherichia coli [35]): 0.001 µg/mL | Activity (Vibrio vulnificus [36]): Active | MIC (Klebsiella pneumoniae [37]): 3.12 µg/mL | MBC (Streptococcus iniae [38]): < 1.56 µg/mL | Activity (Vibrio vulnificus [39]): Active | Activity (Cell membrane [40]): Active | MIC (Enterococcus faecalis [41]): 25 µg/mL | MIC (Klebsiella aerogenes [42]): 0.003 µg/mL | MBC (Staphylococcus aureus): > 100 µg/mL | MIC (Klebsiella pneumoniae [43]): 25 µg/mL | Activity (Vibrio vulnificus [44]): Active | MIC (Escherichia coli [45]): 0.39 µg/mL | MIC (Enterococcus faecium [46]): > 100 µg/mL | Activity (Vibrio vulnificus [47]): Active | Activity (Vibrio vulnificus [48]): inactive | MIC (Vibrio vulnificus [49]): 12.5 µg/mL | MIC (Salmonella typhimurium): 50 µg/mL | MBC (Edwardsiella tarda): > 100 µg/mL | MBC (Klebsiella aerogenes [50]): 12.5 µg/mL
